Assays:
Dipeptidyl peptidase 2 = Dipeptidyl peptidase 2 (Homo sapiens, UniProt Q9UHL4); assay: Inhibition of Quiescent cell prolyl dipeptidase
Prolyl endopeptidase FAP = target: T1, Prolyl endopeptidase FAP (Homo sapiens, UniProt Q12884); assay: Inhibition of Fibroblast activation protein alpha (seprase)
T1 sequence (Q12884 whole entry): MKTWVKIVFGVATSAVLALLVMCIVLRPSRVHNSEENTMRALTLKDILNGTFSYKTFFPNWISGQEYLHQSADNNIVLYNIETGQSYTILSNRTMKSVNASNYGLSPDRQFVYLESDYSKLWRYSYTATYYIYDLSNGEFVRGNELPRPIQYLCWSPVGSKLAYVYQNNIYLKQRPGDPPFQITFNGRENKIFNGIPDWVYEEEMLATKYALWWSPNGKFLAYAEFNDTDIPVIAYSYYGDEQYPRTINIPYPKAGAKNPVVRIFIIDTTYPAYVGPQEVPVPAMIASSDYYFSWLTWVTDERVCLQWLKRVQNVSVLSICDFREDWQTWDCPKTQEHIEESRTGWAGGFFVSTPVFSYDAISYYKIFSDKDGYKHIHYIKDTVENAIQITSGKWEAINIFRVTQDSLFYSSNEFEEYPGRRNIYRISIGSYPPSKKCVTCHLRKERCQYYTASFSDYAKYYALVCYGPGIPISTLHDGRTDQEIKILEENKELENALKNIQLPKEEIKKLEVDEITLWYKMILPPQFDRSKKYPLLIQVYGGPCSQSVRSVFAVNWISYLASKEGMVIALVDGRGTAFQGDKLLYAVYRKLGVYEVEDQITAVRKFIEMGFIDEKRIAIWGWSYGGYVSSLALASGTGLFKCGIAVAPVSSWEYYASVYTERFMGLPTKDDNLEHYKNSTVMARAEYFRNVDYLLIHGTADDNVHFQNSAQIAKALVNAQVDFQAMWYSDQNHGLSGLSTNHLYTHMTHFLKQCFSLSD

[1] = Oral bioavailability in rat (dose 1 mg/kg i.v. and 2 mg/kg p.o.); type: ADME, organism-based; conditions: in vivo
Dipeptidyl peptidase 8 = Dipeptidyl peptidase 8 (Homo sapiens, UniProt Q6V1X1); assay: Inhibition of Dipeptidylpeptidase VIII
[2] = Half-life in rats ([…]/[…] mg/kg i.v./p.o.); type: ADME, organism-based; conditions: rat, in vivo, 2 mg/kg
[3] = Plasma clearance in rats (1/2 mg/kg i.v./p.o.); type: ADME, organism-based; conditions: rat, 1 mg/kg i.v.
Dipeptidyl peptidase 9 = Dipeptidyl peptidase 9 (Homo sapiens, UniProt Q86TI2); assay: Inhibition of Dipeptidylpeptidase IX
Xaa-Pro dipeptidase = target: T2, Xaa-Pro dipeptidase (Homo sapiens, UniProt P12955); assay: Inhibition of prolidase
T2 sequence (P12955 whole entry): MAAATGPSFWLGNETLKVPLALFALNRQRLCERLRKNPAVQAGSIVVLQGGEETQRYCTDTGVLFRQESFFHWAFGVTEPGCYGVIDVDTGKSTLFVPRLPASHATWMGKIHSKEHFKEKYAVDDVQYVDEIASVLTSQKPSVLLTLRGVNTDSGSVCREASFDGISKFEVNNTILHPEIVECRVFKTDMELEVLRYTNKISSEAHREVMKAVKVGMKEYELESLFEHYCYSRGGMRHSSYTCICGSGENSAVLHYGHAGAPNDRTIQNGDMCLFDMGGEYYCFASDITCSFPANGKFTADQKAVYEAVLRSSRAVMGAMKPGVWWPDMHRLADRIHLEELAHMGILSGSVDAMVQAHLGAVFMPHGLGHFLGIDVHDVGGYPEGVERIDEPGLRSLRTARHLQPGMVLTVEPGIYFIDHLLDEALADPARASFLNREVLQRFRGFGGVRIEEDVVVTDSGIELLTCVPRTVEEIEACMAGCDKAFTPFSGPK

Prolyl endopeptidase = target: T3, Prolyl endopeptidase (Homo sapiens, UniProt P48147); assay: Inhibition of prolyl endopeptidase
T3 sequence (P48147 whole entry): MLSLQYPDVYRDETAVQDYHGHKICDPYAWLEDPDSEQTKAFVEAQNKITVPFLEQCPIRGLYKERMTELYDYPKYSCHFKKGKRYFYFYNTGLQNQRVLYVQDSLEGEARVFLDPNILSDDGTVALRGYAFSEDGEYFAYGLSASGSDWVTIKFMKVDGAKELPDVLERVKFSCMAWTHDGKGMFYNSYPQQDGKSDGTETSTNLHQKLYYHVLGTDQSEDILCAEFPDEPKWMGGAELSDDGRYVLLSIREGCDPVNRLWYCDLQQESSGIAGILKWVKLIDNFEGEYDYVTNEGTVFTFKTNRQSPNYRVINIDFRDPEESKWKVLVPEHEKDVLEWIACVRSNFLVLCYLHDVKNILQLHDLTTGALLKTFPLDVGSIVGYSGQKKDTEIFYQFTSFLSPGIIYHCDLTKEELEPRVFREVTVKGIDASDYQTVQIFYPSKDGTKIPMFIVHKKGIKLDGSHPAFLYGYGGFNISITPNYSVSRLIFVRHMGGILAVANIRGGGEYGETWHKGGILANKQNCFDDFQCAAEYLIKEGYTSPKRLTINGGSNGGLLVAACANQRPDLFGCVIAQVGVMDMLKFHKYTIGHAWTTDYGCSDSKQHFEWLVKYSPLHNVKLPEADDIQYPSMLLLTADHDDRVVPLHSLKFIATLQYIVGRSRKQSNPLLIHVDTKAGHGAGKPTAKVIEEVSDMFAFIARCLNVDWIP

[4] = Inhibition of Aminopeptidase P
Dipeptidyl peptidase 4 = Dipeptidyl peptidase 4 (Homo sapiens, UniProt P27487); assay: Inhibition of human recombinant Dipeptidylpeptidase IV
[5] = target: Voltage-gated inwardly rectifying potassium channel KCNH2 (Homo sapiens, UniProt Q12809); assay: Inhibition of human Potassium channel HERG
Voltage-gated inwardly rectifying potassium channel KCNH2, sequence (Q12809 whole entry): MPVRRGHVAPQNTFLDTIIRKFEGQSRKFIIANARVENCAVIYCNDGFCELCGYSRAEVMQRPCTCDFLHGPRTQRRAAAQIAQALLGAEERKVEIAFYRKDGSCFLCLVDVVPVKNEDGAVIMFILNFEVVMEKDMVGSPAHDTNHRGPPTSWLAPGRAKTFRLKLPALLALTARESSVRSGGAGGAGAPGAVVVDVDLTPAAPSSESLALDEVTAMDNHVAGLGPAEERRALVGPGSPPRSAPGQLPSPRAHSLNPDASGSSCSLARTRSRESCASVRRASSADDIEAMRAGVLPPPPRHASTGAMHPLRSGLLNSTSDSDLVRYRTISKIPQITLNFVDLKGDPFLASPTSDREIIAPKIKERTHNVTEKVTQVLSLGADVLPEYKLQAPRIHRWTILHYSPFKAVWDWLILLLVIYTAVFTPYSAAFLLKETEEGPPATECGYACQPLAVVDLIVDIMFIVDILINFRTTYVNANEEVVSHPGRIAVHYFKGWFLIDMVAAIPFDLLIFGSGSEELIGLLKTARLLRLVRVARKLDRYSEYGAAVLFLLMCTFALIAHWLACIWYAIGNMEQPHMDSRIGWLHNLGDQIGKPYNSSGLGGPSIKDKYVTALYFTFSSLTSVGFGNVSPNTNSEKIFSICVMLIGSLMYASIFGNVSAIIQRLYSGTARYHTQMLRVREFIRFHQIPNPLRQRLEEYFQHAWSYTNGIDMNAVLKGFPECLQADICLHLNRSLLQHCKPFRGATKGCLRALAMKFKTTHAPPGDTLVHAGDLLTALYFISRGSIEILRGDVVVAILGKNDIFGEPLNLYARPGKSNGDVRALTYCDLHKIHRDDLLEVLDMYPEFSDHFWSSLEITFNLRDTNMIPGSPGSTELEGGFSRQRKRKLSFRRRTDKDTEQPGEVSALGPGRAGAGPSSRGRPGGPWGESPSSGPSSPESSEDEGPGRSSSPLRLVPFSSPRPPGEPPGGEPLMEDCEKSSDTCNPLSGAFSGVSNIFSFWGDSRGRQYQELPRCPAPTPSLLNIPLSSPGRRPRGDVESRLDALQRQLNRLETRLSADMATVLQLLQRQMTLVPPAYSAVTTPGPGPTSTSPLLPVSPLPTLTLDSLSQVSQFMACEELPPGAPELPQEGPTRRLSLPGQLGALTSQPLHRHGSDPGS

Dipeptidyl peptidase 8, sequence (Q6V1X1 whole entry): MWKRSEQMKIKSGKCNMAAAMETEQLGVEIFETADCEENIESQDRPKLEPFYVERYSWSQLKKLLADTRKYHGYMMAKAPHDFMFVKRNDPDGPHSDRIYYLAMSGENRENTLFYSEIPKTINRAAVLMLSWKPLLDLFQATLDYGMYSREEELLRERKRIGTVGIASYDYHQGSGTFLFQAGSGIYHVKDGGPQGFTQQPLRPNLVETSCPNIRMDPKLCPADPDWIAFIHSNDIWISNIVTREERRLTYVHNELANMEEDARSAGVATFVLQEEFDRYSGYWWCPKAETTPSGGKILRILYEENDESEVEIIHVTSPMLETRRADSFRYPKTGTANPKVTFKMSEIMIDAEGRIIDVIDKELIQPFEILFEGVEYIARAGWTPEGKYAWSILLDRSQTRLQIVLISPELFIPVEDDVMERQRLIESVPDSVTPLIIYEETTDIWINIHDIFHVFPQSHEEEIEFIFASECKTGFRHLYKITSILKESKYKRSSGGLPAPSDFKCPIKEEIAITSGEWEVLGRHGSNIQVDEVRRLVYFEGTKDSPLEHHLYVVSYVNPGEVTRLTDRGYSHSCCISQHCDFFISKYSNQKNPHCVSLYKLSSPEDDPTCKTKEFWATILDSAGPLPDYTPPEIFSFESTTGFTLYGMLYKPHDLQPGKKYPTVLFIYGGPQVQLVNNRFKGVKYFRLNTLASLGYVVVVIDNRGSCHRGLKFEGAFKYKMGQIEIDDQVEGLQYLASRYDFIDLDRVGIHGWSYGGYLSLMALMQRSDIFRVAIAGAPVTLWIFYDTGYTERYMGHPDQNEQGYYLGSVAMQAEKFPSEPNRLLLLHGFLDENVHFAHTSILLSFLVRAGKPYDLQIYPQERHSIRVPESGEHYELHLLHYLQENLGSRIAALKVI
Dipeptidyl peptidase 9, sequence (Q86TI2 whole entry): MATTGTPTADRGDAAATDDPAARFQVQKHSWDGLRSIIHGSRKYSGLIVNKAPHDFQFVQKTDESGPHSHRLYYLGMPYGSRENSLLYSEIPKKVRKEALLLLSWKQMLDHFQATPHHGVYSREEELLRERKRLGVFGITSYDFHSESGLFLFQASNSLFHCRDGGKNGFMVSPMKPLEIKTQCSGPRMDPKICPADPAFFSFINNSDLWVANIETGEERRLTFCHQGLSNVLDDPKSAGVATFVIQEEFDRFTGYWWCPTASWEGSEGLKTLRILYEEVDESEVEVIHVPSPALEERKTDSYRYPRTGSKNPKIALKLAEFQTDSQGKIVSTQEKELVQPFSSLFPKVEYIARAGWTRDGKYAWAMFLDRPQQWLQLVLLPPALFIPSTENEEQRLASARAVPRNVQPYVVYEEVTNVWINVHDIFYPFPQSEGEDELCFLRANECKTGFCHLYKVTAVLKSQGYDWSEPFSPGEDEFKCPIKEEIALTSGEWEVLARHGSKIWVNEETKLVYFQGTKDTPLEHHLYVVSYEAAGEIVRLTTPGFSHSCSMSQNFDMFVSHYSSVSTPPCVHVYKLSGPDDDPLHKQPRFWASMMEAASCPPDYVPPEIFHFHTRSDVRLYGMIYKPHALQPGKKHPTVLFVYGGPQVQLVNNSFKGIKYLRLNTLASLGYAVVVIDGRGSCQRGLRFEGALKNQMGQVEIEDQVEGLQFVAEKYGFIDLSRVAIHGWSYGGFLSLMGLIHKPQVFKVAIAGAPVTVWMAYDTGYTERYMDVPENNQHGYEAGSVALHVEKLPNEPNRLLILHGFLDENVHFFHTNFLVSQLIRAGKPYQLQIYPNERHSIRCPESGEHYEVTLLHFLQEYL
Dipeptidyl peptidase 4, sequence (P27487 whole entry): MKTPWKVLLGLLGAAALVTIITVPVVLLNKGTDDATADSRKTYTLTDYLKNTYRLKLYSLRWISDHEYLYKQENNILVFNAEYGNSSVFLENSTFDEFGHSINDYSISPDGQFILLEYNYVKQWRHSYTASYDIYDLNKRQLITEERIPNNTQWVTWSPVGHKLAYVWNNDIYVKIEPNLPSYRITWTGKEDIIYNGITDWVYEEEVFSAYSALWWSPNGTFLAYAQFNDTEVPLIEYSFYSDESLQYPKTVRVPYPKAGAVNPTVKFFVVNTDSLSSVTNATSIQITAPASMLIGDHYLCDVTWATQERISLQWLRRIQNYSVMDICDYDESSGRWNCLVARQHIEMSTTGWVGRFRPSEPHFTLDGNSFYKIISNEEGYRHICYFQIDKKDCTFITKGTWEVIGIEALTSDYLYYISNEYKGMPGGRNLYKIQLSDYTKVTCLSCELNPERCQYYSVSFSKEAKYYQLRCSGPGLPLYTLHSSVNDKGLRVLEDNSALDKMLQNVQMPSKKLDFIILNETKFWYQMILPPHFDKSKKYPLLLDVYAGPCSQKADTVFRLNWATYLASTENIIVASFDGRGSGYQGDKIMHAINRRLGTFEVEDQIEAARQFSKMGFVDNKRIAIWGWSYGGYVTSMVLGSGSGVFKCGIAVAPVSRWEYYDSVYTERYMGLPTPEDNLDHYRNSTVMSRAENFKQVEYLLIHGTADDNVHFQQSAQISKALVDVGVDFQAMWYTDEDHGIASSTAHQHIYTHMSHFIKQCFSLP

Compound	IC50 (Dipeptidyl peptidase 2) [µM]	IC50 (Prolyl endopeptidase FAP) [µM]	bioavailability [1] [%]	IC50 (Dipeptidyl peptidase 8) [µM]	half-life [2] [min]	clearance [3] [mL/min/kg]	IC50 (Dipeptidyl peptidase 9) [µM]	IC50 (Xaa-Pro dipeptidase) [µM]	IC50 (Prolyl endopeptidase) [µM]	IC50 [4] [µM]	IC50 (Dipeptidyl peptidase 4) [µM]	IC50 [5] [µM]
NC(CC(=O)N1CSC[C@H]1C(=O)NCc1ccc(CC(=O)O)cc1)Cc1ccccc1F.O=C(O)C(F)(F)F (stereo not given in full)	> 100	> 100	10	> 50	11.4	25	–	–	–	–	–	–
NC(CC(=O)N1CCC[C@H]1C(=O)NCc1ccc(C(=O)O)cc1)Cc1ccc(F)c(F)c1.O=C(O)C(F)(F)F (stereo not given in full)	> 100	> 100	< 1	> 100	21.6	47	> 100	–	–	–	–	–
CC(C)[C@@H](Oc1ccc(CNC(=O)[C@@H]2CCCN2C(=O)CC(N)Cc2cc(F)ccc2F)cc1)C(=O)O.O=C(O)C(F)(F)F (stereo not given in full)	> 100	21	–	> 100	37.8	150	86	> 100	39	> 100	0.00048	–
NC(CC(=O)N1CCC[C@H]1C(=O)NCCCCc1nn[nH]n1)Cc1ccccc1F.O=C(O)C(F)(F)F (stereo not given in full)	> 100	> 100	< 1	> 100	12	54	> 100	> 100	–	> 100	0.039	–
CC(C)[C@@H](Oc1ccc(CNC(=O)[C@@H]2CCCN2C(=O)C(N)C2CCCCC2)cc1)C(=O)O (stereo not given in full)	> 100	> 100	–	–	–	–	–	–	> 100	–	–	> 90
NC(CC(=O)N1CCC[C@H]1C(=O)NCc1ccc(C(F)(F)F)cc1)Cc1ccccc1F.O=C(O)C(F)(F)F (stereo not given in full)	55	> 100	38	5.3	46.8	78	> 100	> 100	–	> 100	0.721	–
COC(=O)Cc1ccc(CNC(=O)[C@@H]2CSCN2C(=O)CC(N)Cc2ccccc2F)cc1.O=C(O)C(F)(F)F (stereo not given in full)	59	> 100	11	> 100	6	140	> 100	> 100	100	> 100	0.087	9.7
CC(C)[C@@H](Oc1ccc(CNC(=O)[C@@H]2CCCN2C(=O)CC(N)Cc2c(F)c(F)c(F)c(F)c2F)cc1)C(=O)O.O=C(O)C(F)(F)F (stereo not given in full)	> 100	48	< 1	> 100	21.6	47	> 100	> 100	> 100	> 100	0.0082	–
